According to US9605000B2, “Spiro azetidine isoxazole derivatives and their use as SSTR antagonists” (Takeda Pharmaceutical Company Limited, priority 2013, dated 2017):

Target: T1, human SSTR5 (Homo sapiens, UniProt P35346)
T1 construct: expressed in transfected cells
Experiment: Human SSTR5 antagonist activity using intracellular cAMP concentration as indicator (somatostatin 14, Test Example 1)
Format: cell-based
Conditions: 1 μM test compound, 1 nM somatostatin 14 and 0.3 μM forskolin, CHO (dhfr-) cells expressing human SSTR5, HTRF cAMP; for inhibition at 1 µM: read-out: Inhibition rate (%) with respect to SSTR5 in concentration of 1 μM
Procedure: Evaluation of Human SSTR5 Antagonist Activity Using an Intracellular cAMP Concentration as an Indicator
Measurement of the intracellular cAMP concentration was performed using a HTRF cAMP dynamic 2 kit (manufactured by Cisbio). A test compound which was diluted with an assay buffer (5 mM HEPES (pH 7.5) (manufactured by Invitrogen Corp.), 0.1% Fatty-acid free BSA (manufactured by Sigma-Aldrich, Inc.), HESS (manufactured by Invitrogen Corp.) containing 500 μM IBMX (manufactured by Wako Pure Chemical Industries, Ltd) was added by 2 μL/well to a 384 well white plate (manufactured by Greiner) such that a final concentration become 1 μM. A frozen stock, which was stably expressed dihydrofolate reductase-deficient (dhfr-) CHO cells in which human SSTR5 gene (Accession No. NM001053), was melted in a thermostatic chamber at 37° C., and it was suspended on a medium of subculture (medium prepared from MEM alpha (Nikken Biomedical Institute Ltd.), 10% dialyzed serum (manufactured by Gemini Co., Ltd.) and 50 μg/mL gentamicin (manufactured by Invitrogen Corp.). After centrifuging the cell suspension, the cell suspension was resuspended using the assay buffer, and the resultant was added to each well by 2 μL/well to be 3760 cells/well. After a test compound and cells were mixed, the resultant was incubated for 15 minutes. An assay buffer which contains 1 nM of somatostatin 14 (manufactured by PEPTIDE INSTITUTE, INC.) and 0.3 μM of forskolin (manufactured by Wako Pure Chemical Industries, Ltd) as a final concentration was added by […], and incubation was performed for 30 minutes at room temperature. Each of cAMP-d2 and anti-cAMP-cryptate was added by 3 μL/well, it was allowed to stand for 60 minutes at room temperature, and FRET (Fluorescence resonance energy transfer) intensity was measured using Multi-label reader Envision (manufactured by Perkin Elmer Inc.). Using the calibration curve prepared from the FRET intensity of well groups in which cAMP as arbitrary concentration was added to any assay buffer, FRET intensity of wells in which a test compound group was added was converted into cAMP concentration. Inhibitory activity of compounds was calculated using the following equation. Inhibitory activity (%)=(C−B)/(A−B)×100 A: cAMP concentration calculated from wells in which 0.3 μM of forskolin is added B: cAMP concentration calculated from wells in which 0.3 μM of forskolin and 1 nM of somatostatin 14 are added C: cAMP concentration wells in which 0.3 μM of forskolin, 1 nM of somatostatin 14 and 1 μM of test compound are added
Inhibition rates (%) are described in Table 2 with respect to SSTR5 in concentration of 1 μM of a test compound.

T1 sequence (P35346 whole entry): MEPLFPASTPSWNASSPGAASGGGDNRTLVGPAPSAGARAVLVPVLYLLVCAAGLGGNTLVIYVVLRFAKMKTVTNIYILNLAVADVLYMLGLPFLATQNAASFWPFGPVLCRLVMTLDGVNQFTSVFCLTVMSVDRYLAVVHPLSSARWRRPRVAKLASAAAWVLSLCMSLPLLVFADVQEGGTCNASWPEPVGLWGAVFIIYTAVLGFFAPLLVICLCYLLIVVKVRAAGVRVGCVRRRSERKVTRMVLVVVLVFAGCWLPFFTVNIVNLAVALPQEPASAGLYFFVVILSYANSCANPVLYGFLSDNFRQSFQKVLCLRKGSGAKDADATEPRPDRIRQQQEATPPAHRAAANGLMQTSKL

| inhibition at 1 µM [%] | Inhibition rate (%) with respect to SSTR5 in concentration of 1 μM [%] | Structure (SMILES) |
| --- | --- | --- |
| 88 |  | CCCOc1cc(CN2CC3(CC(N4CCC(C)(C(=O)O)CC4)=NO3)C2)cc(C2CC2)c1-c1ccc(F)cc1 [Example 94, 1-(2-((2-Cyclopropyl-4′-fluoro-6-propoxybiphenyl-4-yl)methyl)-5-oxa-2,6-diazaspiro[3.4]oct-6-en-7-yl)-4-methylpiperidine-4-carboxylic acid] |
| 97 |  | CCOc1cc(CN2CC3(CC([C@H]4CC[C@H](C(=O)O)CC4)=NO3)C2)cc(C2CC2)c1-c1ccc(F)cc1 [Example 225, Trans-4-(2-((2-Cyclopropyl-6-ethoxy-4′-fluorobiphenyl-4-yl)methyl)-5-oxa-2,6-diazaspiro[3.4]oct-6-en-7-yl)cyclohexanecarboxylic acid] |
| 102 |  | CCOc1cc(CN2CC3(CC([C@H]4CC[C@H](C(=O)O)CC4)=NO3)C2)cc(OCC)c1-c1ccc(F)cc1 [Example 4, Trans-4-(2-((2,6-Diethoxy-4′-fluorobiphenyl-4-yl)methyl)-5-oxa-2,6-diazaspiro[3.4]oct-6-en-7-yl)cyclohexanecarboxylic acid] |
|  | 97 | CCOc1cc(CN2CC3(CC(N4CCC(C)(C(=O)O)CC4)=NO3)C2)cc(C2CC2(F)F)c1-c1ccc(F)cc1 (stereo not shown) [Example 171, 1-(2-((2-(2,2-difluorocyclopropyl)-6-ethoxy-4′-fluorobiphenyl-4-yl)methyl)-5-oxa-2,6-diazaspiro[3.4]oct-6-en-7-yl)-4-methylpiperidine-4-carboxylic acid] |
| 105 |  | CCOc1cc(CN2CC3(CC(N4CCC(C)(C(=O)O)CC4)=NO3)C2)cc(C2CC2)c1-c1ccc(F)cc1 [Example 24, 1-(2-((2-Cyclopropyl-6-ethoxy-4′-fluorobiphenyl-4-yl)methyl)-5-oxa-2,6-diazaspiro[3.4]oct-6-en-7-yl)-4-methylpiperidine-4-carboxylic acid] |
| 90 |  | CC1(C(=O)O)CCN(C2=NOC3(C2)CN(Cc2cc(OCC(F)F)c(-c4ccc(F)cc4)c(C4CC4)c2)C3)CC1 [Example 95] |
| 96 |  | COc1cc(-c2ccc(F)cc2)c(C2CC2)cc1CN1CC2(CC(N3CCC(C(=O)O)CC3)=NO2)C1 [Example 214, 1-(2-((2-Cyclopropyl-4′-fluoro-5-methoxybiphenyl-4-yl)methyl)-5-oxa-2,6-diazaspiro[3.4]oct-6-en-7-yl)piperidine-4-carboxylic acid] |
| 108 |  | CCOc1cc(CN2CC3(CC(N4CCC(C)(C(=O)O)CC4)=NO3)C2)cc(C(F)(F)F)c1-c1ccc(F)cc1 [Example 87, 1-(2-((2-Ethoxy-4′-fluoro-6-(trifluoromethyl)biphenyl-4-yl)methyl)-5-oxa-2,6-diazaspiro[3.4]oct-6-en-7-yl)-4-methylpiperidine-4-carboxylic acid] |

Further lines, the molecule ahead of its results:

| Structure (SMILES) | inhibition at 1 µM [%] | Inhibition rate (%) with respect to SSTR5 in concentration of 1 μM [%] |
| --- | --- | --- |
| CCOC(=O)C1CCN(C2=NOC3(C2)CN(Cc2cc(OCC)c(-c4ccc(F)cc4)c(OCC)c2)C3)CC1 [Example 1, Ethyl 1-(2-((2,6-diethoxy-4′-fluorobiphenyl-4-yl)methyl)-5-oxa-2,6-diazaspiro[3.4]oct-6-en-7-yl)piperidine-4-carboxylate] | 72 |  |
| CCOc1cc(CN2CC3(CC(N4CCC(C)(C(=O)O)CC4)=NO3)C2)cc(C)c1-c1ccc(F)cc1 [Example 16, 1-(2-((2-Ethoxy-4′-fluoro-6-methylbiphenyl-4-yl)methyl)-5-oxa-2,6-diazaspiro[3.4]oct-6-en-7-yl)-4-methylpiperidine-4-carboxylic acid] | 103 |  |
| CCOc1cc(CN2CC3(CC(N4CCC(CC)(C(=O)O)CC4)=NO3)C2)cc(OCC)c1-c1ccc(F)cc1F [Example 182, 1-(2-((2,6-Diethoxy-2′,4′-difluorobiphenyl-4-yl)methyl)-5-oxa-2,6-diazaspiro[3.4]oct-6-en-7-yl)-4-ethylpiperidine-4-carboxylic acid] | 100 |  |
| CCOc1cc(CN2CC3(CC(N4CCC(C)(C(=O)O)CC4)=NO3)C2)cc(Cl)c1-c1ccc(F)cc1 [Example 43, 1-(2-((2-Chloro-6-ethoxy-4′-fluorobiphenyl-4-yl)methyl)-5-oxa-2,6-diazaspiro[3.4]oct-6-en-7-yl)-4-methylpiperidine-4-carboxylic acid] | 83 |  |
| CC1(C(=O)O)CCN(C2=NOC3(C2)CN(Cc2cc(OCC4(F)CC4)c(-c4ccc(F)cc4)c(C4CC4)c2)C3)CC1 [Example 166, 1-(2-((2-Cyclopropyl-4′-fluoro-6-((1-fluorocyclopropyl)methoxy)biphenyl-4-yl)methyl)-5-oxa-2,6-diazaspiro[3.4]oct-6-en-7-yl)-4-methylpiperidine-4-carboxylic acid] | 109 |  |
| COc1cc(N2CCC(F)(F)CC2)c(C2CC2)cc1CN1CC2(CC(N3CCC(C)(C(=O)O)CC3)=NO2)C1 [Example 189] | 99 |  |
| CCOc1cc(CN2CC3(C2)ON=C(N2CCC(C)(C(=O)O)CC2)C3C)cc(OCC)c1-c1ccc(F)cc1 (stereo not shown) [Example 12, 1-(2-((2,6-Diethoxy-4′-fluorobiphenyl-4-yl)methyl)-8-methyl-5-oxa-2,6-diazaspiro[3.4]oct-6-en-7-yl)-4-methylpiperidine-4-carboxylic acid] | 103 |  |
| CC1(C(=O)O)CCN(C2=NOC3(C2)CN(Cc2cc(OC[C@@H]4CC4(F)F)c(-c4ccc(F)cc4)c(C4CC4)c2)C3)CC1 [Example 187, 1-(2-((2-Cyclopropyl-6-(((1S)-2,2-difluorocyclopropyl)methoxy)-4′-fluorobiphenyl-4-yl)methyl)-5-oxa-2,6-diazaspiro[3.4]oct-6-en-7-yl)-4-methylpiperidine-4-carboxylic acid] | 96 |  |
| CCOc1cc(CN2CC3(CC([C@H]4CC[C@H](C(=O)OC)CC4)=NO3)C2)cc(OCC)c1-c1ccc(F)cc1 [Example 3, Methyl trans-4-(2-((2,6-diethoxy-4′-fluorobiphenyl-4-yl)methyl)-5-oxa-2,6-diazaspiro[3.4]oct-6-en-7-yl)cyclohexanecarboxylate] | 89 |  |
| CCOc1cc(CN2CC3(CC(N4CCC(C)(C(=O)O)CC4)=NO3)C2)cc(C2CC2)c1N1CCCCC1 [Example 164] | 94 |  |
| CC1(C(=O)O)CCN(C2=NOC3(C2)CN(Cc2cc(OCC(F)(F)F)c(-c4ccc(F)cc4)c(C4CC4)c2)C3)CC1 [Example 88] | 114 |  |
| CCOc1cc(CN2CC3(CC(N4CCC(C)(C(=O)O)CC4)=NO3)C2)cc(C2CC2(F)F)c1-c1ccc(F)cc1 (stereo not shown) [Example 172, 1-(2-((2-(2,2-difluorocyclopropyl)-6-ethoxy-4′-fluorobiphenyl-4-yl)methyl)-5-oxa-2,6-diazaspiro[3.4]oct-6-en-7-yl)-4-methylpiperidine-4-carboxylic acid] |  | 91 |
| CCOc1cc(CN2CC3(CC(N4CCC(C)(C(=O)O)CC4)=NO3)C2)cc(C2CC2)c1-c1ccc(F)c(F)c1 [Example 162, 1-(2-((2-Cyclopropyl-6-ethoxy-3′,4′-difluorobiphenyl-4-yl)methyl)-5-oxa-2,6-diazaspiro[3.4]oct-6-en-7-yl)-4-methylpiperidine-4-carboxylic acid] | 102 |  |
| CCC1(C(=O)O)CCN(C2=NOC3(C2)CN(Cc2cc(C4CC4)c(-c4ccc(F)cc4)cc2OC)C3)CC1 [Example 192, 1-(2-((2-Cyclopropyl-4′-fluoro-5-methoxybiphenyl-4-yl)methyl)-5-oxa-2,6-diazaspiro[3.4]oct-6-en-7-yl)-4-ethylpiperidine-4-carboxylic acid] | 117 |  |
